Data: patent US20160235642A1, “Melanin Binding Agents for Targeted Topical Delivery” (AVON PRODUCTS, INC, priority 2013, published 2016)

What was measured:
[1] = Binding of compounds to free synthetic melanin (Example 3); conditions: free synthetic melanin 50 μg/mL, compound 10 μM in PBS, 37° C., 1 hour; relative percentage of compound bound, measured spectrophotometrically from compound left in solution
Method: Free synthetic melanin was incubated with compounds of interest in order to determine relative binding affinity of various compounds of interest to melanin. Free synthetic melanin (50 μg/mL) and compounds of interest at 10 μM concentration in PBS were incubated at 37° C. for 1 hour. After 1 hour, the synthetic melanin was removed from the solution, and the relative concentrations of the compound left in solution (i.e., not bound to the melanin) were measured spectrophometrically.

[2] = system: Melanoderm Mel-B (high concentration of melanin) and Melanoderm Mel-C (low concentration of melanin) tissue models; assay: Affinity of pyridinium compounds for melanin in Melanoderm tissue models (Example 2); assay type: cell-based
From the text: Affinity of pyridinium compounds for melanin in Melanoderm Mel-B (high concentration of melanin) and Melanoderm Mel-C (low concentration of melanin) tissue models.
Melanoderm Mel-B (high concentration of melanin) and Melanoderm Mel-C (low concentration of melanin) tissue models were used to determine the affinity of pyridinium compounds for melanin. Chloroquine served as a positive control and caffeic acid was a negative control for melanin binding. […] Test materials were topically applied at 0, 24 and 48 hours and tested at 1 μM and 10 μM concentration in water. Media samples were collected at 6, 24, 48, and 72 hours and tissue were lysed at 72 hours.

| SMILES | % Melanin Bound [1] | further results |
| --- | --- | --- |
| Nc1cnc2ccccc2c1 [3-Aminoquinoline] | 5.1% | – |
| NC(=O)c1cccnc1 [Niacinamide] | 0% | – |
| Cl.c1ccncc1 [Pyridine hydrochloride] | 0% | – |
| OCC[n+]1ccccc1.[Cl-] [1-(2-Hydroxyethyl) pyridinium chloride] | 0% | – |
| O=CC[C@@H](O)[C@H](O)[C@H](O)CO [Deoxy-d-glucose] | Not detected | – |
| O=C(O)/C=C/c1ccc(O)c(O)c1 [Caffeic acid] | 0% | – |
| Cn1c(=O)c2c(ncn2C)n(C)c1=O [Caffeine] | 4.4% | – |
| c1ccc2[nH]ccc2c1 [Indole] | 7.3% | – |
| CCN(CC)CCCC(C)Nc1ccnc2cc(Cl)ccc12 (stereo not shown) [Chloroquine] | 48.6% | – |
| CCCCCCCCCCCC[n+]1ccc(N)cc1.[Cl-] [4-Amino-1-dodecyl-pyridinium chloride] | 49.5% | melanin binding compared with the positive control (chloroquine) ([2]; Melanoderm tissue models, 1 μM and 10 μM): outperformed the positive control; melanin binding, 10 μM compared to 1 μM concentration ([2]; Melanoderm tissue models, 10 μM versus 1 μM): increased melanin binding; binding affinity for the 3-D tissue samples ([2]; topically applied at 0, 24 and 48 hours, 1 μM and 10 μM in water, media at 6, 24, 48, 72 hours, tissue lysed at 72 hours, FIG. 1): strong binding affinity |
| Oc1ccccc1O [Pyrocatechol] | 21.5% | – |
| CCCC[n+]1ccccc1.[Cl-] [1-Butylpyridinium chloride] | 0% | – |
| O=c1c(O)c(-c2ccc(O)c(O)c2)oc2cc(O)cc(O)c12 [Quercetin] | 99.7% | – |
| OCCc1c[nH]c2ccccc12 [3-(2-Hydroxyethyl)indole] | 6.5% | – |
| CCCCCCCCCCCCOC(=O)CCSCCC(=O)OCCCCCCCCCCCC [Dilauryl Thiodipropionate] | Not detected | – |
| CC1COC(=O)O1 (stereo not shown) [Propylene Carbonate] | Not detected | – |
| Oc1cccc(O)c1O [Pyrogallol] | Not detected | – |
| O=C(O)CCSCCC(=O)O [Thiodipropanoic Acid] | 1.5% | – |
| O=C(O)c1cc(O)c(O)c(O)c1 [Gallic acid] | 0% | – |
